Entries after “also recorded” stand apart in the source; their conditions may differ.

Experiment [1] has as its system human neutrophils (PMNLs). The experiment can be described thus: Binding and uptake of FAM-labeled ODNs by neutrophils (flow cytometry). Type of experiment: cell-based. Conditions: 1 µM LRR11, 0.15 µM FPS-ZM1; n = 3; Figure 7. As for the experimental part: Figure 6 The LRR11 peptide affects the binding and uptake of ODNs by neutrophilic granulocytes. PMNLs (1 × 10^6/mL) in HBSS/HEPES were incubated for 20 min at 37 °C in 5% CO2 with 1 µM FAM-labeled ODN, supplemented or not with 1 µM LRR11 peptide. Both the total ODN accumulation (red) and its intracellular constituent (black) were analyzed by flow cytometry. Surface fluorescence was quenched by trypan blue (TB) solution. Values represent the means ± SEM of FAM fluorescence intensities (RFU, relative fluorescence units) (n = 8). ** p < 0.01; *** p < 0.005, **** p < 0.001 for specified data pairs, as indicated by two-way ANOVA followed by Tukey’s multiple comparison test. Mean fluorescence intensities of unstained PMNLs were 62 ± 12 and 39 ± 5.6 without or after TB quenching, respectively.
Figure 7 RAGE antagonist effect on oligonucleotide penetration into neutrophil cells. […] Both total oligonucleotide accumulation (A) and its intracellular constituent (B) were analyzed by flow cytometry. The surface fluorescence was quenched by trypan blue solution. Values represent the means ± SEM of FAM fluorescence intensities (RFU) (n = 3). * p < 0.05; […]; *** p < 0.005 for the pair of data specified, as indicated by two-way ANOVA followed by Tukey’s multiple comparison test. Fluorescence intensities of unstained controls were 62 ± 14 and 49 ± 6 without, or after TB quenching, respectively. […]

A further experiment concerns PMNLs. As to the kind of experiment: Phagocytosis of FITC-labeled S. typhimurium by neutrophils. Type of experiment: cell-based, human. The conditions noted are these: 1 µM ODN +/- 1 µM LRR11, FITC-labeled S. typhimurium 20 min; n = 3; Figure S2b. On the procedure:
Figure S2b. Influence of LRR11 and ODNs on phagocytic activity of neutrophils. PMNLs supplemented with 1 µM ODN +/- 1 µM LRR11, except for control samples containing HBSS/HEPES instead of ODNs, were incubated for 20 min in Eppendorf tubes at 37 °C in 5% CO2 with continuous stirring. FITC-labeled S. typhimurium were then added for next 20 min, followed by FACS analysis (excitation: 488 nm, emission: 525 nm). Both the relative amounts of PMNLs involved in phagocytosis (A, B) and the fluorescence intensities, reflecting the average number of bacteria captured per cell (C, D), were estimated. To distinguish between internalized and surface-bound bacterial cells, trypan blue at a working concentration of 1 mg/ml, was used to quench the surface FITC fluorescence caused by the attached bacteria. Thus, each series of samples was duplicated to obtain results both without (A, C) and with (B, D) TB quenching, which corresponds to the total interaction and uptake of bacteria. Averaged flow cytometry data are presented, including means ± SEM for the percentages of FITC-positive (i.e., phagocytic) cells (A, B), and mean ± SEM for fluorescence intensities of FITC-positive subpopulations (C, D) (n=3; * p < 0.05; ** p < 0.01 in comparison with corresponding controls, ns – non significant, as indicated by two-way ANOVA followed by Dunnett’s or Tukey’s multiple comparison tests). […]

For another experiment, the system named is CpG-ODNs. Conditions: ref [8]; cited from earlier work. From the text: (§1) In neutrophils, bacteria and pathogen-associated molecular patterns (PAMPs) that are expressed by microorganisms are recognized by Toll-like receptors (TLRs). In particular, the mechanisms of immunoregulatory activity of CpG-containing bacterial or synthetic DNA fragments include their interaction with TLR9 receptors, known as DNA sensors. Therefore, synthetic peptides that mimics DNA recognizing regions of the receptor can be effective modulators of neutrophil cell responses. The crystal structure of TLR9 was analyzed and it was predicted that leucine-rich repeats (L ...

In experiment [2] the test system is TLR9 signaling in RAW 264.7. The conditions noted are these: ref [9]; cited from earlier work.
Description: as §1

Experiment [3] concerns mouse-derived monocyte/macrophage cell line RAW 264.7. Conditions: ref [9]; cited from earlier work.
Description: as §1

As to “QLRKLNLSFNYQKRVSFAHLSLAPSFGSLV [LRR11, 30 amino acid peptide from leucine-rich repeat of TLR9]”, in experiment [1], the “effect of LRR11 on FPS-ZM1 inhibition of ODN internalization” value is “overcomes the inhibitory effect of FPS-ZM1; also recorded: the maximum ODN delivery into cells is observed in the presence of LRR11 and a RAGE antagonist”. In the experiment on PMNLs, the “effect on bacteria engulfment” value is “LRR11 did not affect this”. Also, the “binding to CpG-ODNs” value in the experiment on CpG-ODNs is “can bind to the CpG-ODNs”. Further, the “effect on TLR9 signaling” value in experiment [2] is listed as “attenuating of TLR9 signaling”. In experiment [3], the “effect on oligonucleotide internalization” value was “decrease in the oligonucleotide internalization”.

(Values after paper PMC7961786, “Magic Peptide: Unique Properties of the LRR11 Peptide in the Activation of Leukotriene Synthesis in Human Neutrophils” (International Journal of Molecular Sciences, 2021).)
